Results on 2 compounds are retold here after patent US9226913B2, “Methods of treating cancer using a combination of an immunomodulatory compound and an artemisinin or a derivative thereof” (Celgene Corporation, priority 2010, dated 2016).

Like-named read-outs stand apart in the source and are kept apart here.

Experiment [1] has as its system all the cell lines (A549, HCT116^norm, MCF7). The experiment is described as follows: Effect of low LEN concentrations alone on cell numbers and viabilities (Example 6.2). To be noted: LEN alone at 0.1 and 1 μM. It counts as cell-based, human. The method, then:
Median-effect analysis of combination requires the extrapolation of an IC50-value. Where this was not possible, the inventors explored the effect of combining drugs by fixing the concentration of GEM or LEN (modulating agent) and testing its ability to influence the activity of ART (drug partner). […] ART was diluted in growth medium and added to the plates in a range of drug concentrations to allow determination of IC50. The effect on these IC50 values of co-culture with a sub-optimal concentration (˜IC20) of GEM or LEN was then tested. Cell numbers at 72 hr were assessed by the MTT assay as previously described. This enabled the assessment of the nature of any drug-drug interaction by comparing the IC50 for ART in the presence and absence of the combinatorial drug partner.
The lack of a dose-response in the cells rendered the primary model of drug-drug interaction ineffectual for combinations of ART with LEN. For this reason the inventors next tested the ability of LEN to sensitise cells to ART. These combinatorial analyses were performed in all the cell lines using a smaller concentration of LEN (0.1 and 1 μM). These concentrations had little effect on cell numbers and viabilities.

In experiment [2] the test system is HCT116^norm cells. The experiment in a line: MTT proliferation assay, 72 hr (Example 6.2). It counts as cell-based, human. The protocol: (§1) The human cancer cell lines; MCF7 (breast), HCT116 (colon) and A549 (lung) (Cancer Research UK, London, UK), were grown in either DMEM (Sigma) or RPMI (Sigma) media supplemented with 10% foetal bovine serum, 2 mM L-glutamine, 1% penicillin/streptomycin.
(§2) To study the effect of each agent on cell growth, cells growing exponentially were added to 96-well plates at a density of 3×10^4/well. Drugs (0.1-100 μM) were then added to the wells, ensuring an equal volume of 200 μl across the plate. Cell number was measured at 72 hr using a standard methylthiazoletetrazolium (MTT)-based assay without modifications as described previously (Gordi et al., 2004, Toxicol. Lett. 147: 99-107). Briefly, MTT (Sigma) was added to each well to give a working concentration of 0.4 mg/ml, and plates returned to the incubator for a further 1 hr. After this time, the medium was aspirated off, 200 μl of DMSO was then added to each well, and plates agitated gently for 5 min before measuring optical density at 540 nm in each well.

A further experiment concerns A549 cells. The experiment is described as follows: MTT proliferation assay, 72 hr (Example 6.2). It counts as cell-based, human. The note with it: A549, 72 h, mean ± SD of at least five experiments. The protocol:
as §1, §2
In general terms: Tetrazolium dyes change colour on reduction, which living cells bring about.

In a further experiment the test system is MCF7 cells. The experiment in a line: MTT proliferation assay, 72 hr (Example 6.2). The format is cell-based, human. The note with it: MCF7, 72 h, mean ± SD of at least five experiments. The method, then: as §1, §2
The test system of experiment [3] is HCT116^norm cells. The note with it: read-out: concentration required to achieve ~50% cell kill, ART and OXP used simultaneously, ART + OXP combination (ratio 1:2.5).
Excerpt: The combination studies followed an approach previously described (Gordi et al., 2004, Toxicol. Lett. 147: 99-107). HCT116^norm, A549, MCF7 and HCT116^poly cells (5×10^4/well) growing exponentially were reset in fresh culture medium and aliquoted into 96-well plates. ART was the primary drug partner and combined with OXP at an equal ratio of their respective IC50 (eg. ½×IC50 of ART was combined with ½×IC50 of OXP). Fixing this ratio also kept constant the amount of one drug respective to the other. For instance, ART was combined with OXP at a constant ratio of 1:2.5. Cells were incubated for 72 hr in a humidified atmosphere with 5% CO2 in air at 37° C. Cell number was assessed by the MTT assay as described previously. The activities of drug combinations were established by comparing optical density readings from the treated wells with the control wells with no drug treatment, and the natures of drug-drug interactions then assessed by calculating a combination index (CI) by using the median-effect equation, where CI-values of 1 indicated additivity; CI<1 indicated synergy and CI>1 indicated antagonism.
The test system of a further experiment is HCT116^poly cells. The experiment in a line: MTT proliferation assay, 72 hr (Example 6.2). It counts as cell-based, human. To be noted: HCT116^poly (polyploid extended-passage variant). The protocol: as §2

With `Nc1cccc2c1CN(C1CCC(=O)NC1=O)C2=O` (centres unmarked) [Lenalidomide, 1-oxo-2-(2,6-dioxopiperidin-3-yl)-4-aminoisoindoline], in experiment [1], the “effect on cell numbers and viabilities” value is “little effect”. Also, the IC50 with HCT116^norm cells [2] (Homo sapiens, 72 h, MTT, mean ± SD of at least five experiments, read-out: IC50) is > 100 µM; in the experiment with A549 cells (Homo sapiens), > 100 µM; in the experiment on MCF7 cells (Homo sapiens), > 100 µM.
On to `O=C1[O][Pt]2([NH][C@@H]3CCCC[C@H]3[NH]2)[O]C1=O` [Oxaliplatin, oxaliplatin], for which the IC50 came out at 5.3 µM with HCT116^norm cells [2] (72 h, MTT, mean ± SD of at least five experiments, listed as OXP, read-out: IC50); 4.05 ± 1.8 µM in the experiment on HCT116^norm cells [2] (72 h, MTT, mean ± SD of at least five experiments, read-out: IC50); 4 µM with HCT116^norm cells [2] (single agent, read-out: concentration required to achieve ~50% cell kill, used separately); 6.2 ± 0.95 µM in the experiment with A549 cells; 6.1 ± 1.1 µM in the experiment on MCF7 cells; 1.6 µM with HCT116^norm cells [3]. The compound also had an IC50 with HCT116^poly cells of 5.8 µM.
